# Measured values reported in patent US20250206713A1, “2-[(2-OXO-4-PHENYL-2H-CHROMEN-7-YL)OXY] PROPANAMIDO DERIVATIVES” (LUNELLA BIOTECH, INC., priority 2022, published 2025).
# “Also recorded” adds a separate entry of the source. Read-outs that look alike come from different tables or passages of the source.
# Experiments:
# MCF-7 cells [1] = experiment: 3D anchorage independent growth assay (mammosphere formation assay); format: cell-based, human; conditions: for inhibition of MCF-7 cells across tested concentrations (mammosphere formation): in words, concentration range as given in the value; for potency relative to Compound [I], MCF-7 mammosphere formation: times / fold versus Compound [I]; for IC50: MCF-7 mammosphere formation, approximate, read from figure, read-out: IC50 against MCF-7 cells (mammosphere formation)
# Method: The medium was changed 2-3 times/week.
# 3D Anchorage Independent Growth Assay: This assay is also referred to as the mammosphere formation assay. A single-cell suspension was prepared using enzymatic, and manual disaggregation (25-g needle). Then, cells were plated at a density of 500 cells/cm2 in mammosphere medium (DMEM-F12+1X B-27 Plus Supplement+20 ng/ml EGF+Pen/Strep) under non-adherent conditions, in culture dishes pre-coated with (2-hydroxyethylmethacrylate) (poly-HEMA, Sigma Aldrich Inc.), called “mammosphere plates.” Cells were grown for 5 days and maintained in a humidified incubator at 37° C. After 5 days of culture, 3D-mammospheres >50 μm were counted using an eye piece (“graticule”), and the percentage of cells plated which formed spheres was calculated and is referred to as percent mammosphere formation, and was normalized to one (1=100% MFE). 3D mammosphere formation efficiency (MFE) was analyzed in both the ATP-low and ATP-high sub-populations of cells. All 3D mammosphere experiments were performed in triplicate, at least 3 times independently.
# MCF-7 cells [2] = experiment: SRB assay (cell viability) on MCF-7 cells; conditions: for concentration at which cytotoxicity towards MCF-7 cells starts (SRB assay): 72 hours; for cytotoxicity towards MCF-7 cells (SRB assay): in words
# Method: (§3) The human breast adenocarcinoma cell line MCF-7 was from the American Type Culture Collection (ATCC). hTERT-BJ1 cells were from Clontech, Inc. MCF-7 and hTERT-BJ 1 cells were grown in DMEM supplemented with 10% fetal bovine serum, GlutaMAX and 1% penicillin-streptomycin and incubated at 37 C in a humidified 5% C02 incubator. The medium was changed 2-3 times/week.
# (§4) The inventors initially used the sulphorhodamine (SRB) assay, which is based on the measurement of cellular protein content. After treatment for 72 hours in 96-well plates, cells were fixed with 10% trichloroacetic acid (TCA) for 1 hour in the cold room, and were dried overnight at room temperature. Then, cells were incubated with SRB for 15 min, washed twice with 1% acetic acid, and air dried for at least 1 hour. Finally, the protein-bound dye was dissolved in a 10 mM Tris, pH 8.8 solution and read using the plate reader at 540-nm. […] Prominent cytotoxicity was defined as fewer than 30% of cells still on the plate.
# [3] = test system: human breast tumors initiated from the MDA-MB-231 cell line in chicken embryos; experiment: CAM assay, tumor growth; format: in vivo; conditions: MDA-MB-231 tumors, treated daily for 8 days, different concentrations
# Method: (§1) Further evaluation of both efficacy and toxicity was performed on human breast tumors initiated from the MDA-MB-231 cell line in chicken embryos using the chick chorioallantoic membrane assay (“CAM Assay”) available from Inovotion (Cambridge, Massachusetts). […] An inoculum of 1×10^6 MDA-MB-231 cells was added onto the CAM of each egg (day E9) and then eggs were randomized into groups. On day E10, tumors were detectable and they were then treated daily for 8 days with vehicle alone (1% DMSO in PBS), or a compound of the present approach. After 8 days of drug administration, on day E18 all tumors were weighed, and the lower CAM was collected to evaluate the number of metastatic cells, as analyzed by qPCR with specific primers for Human Alu sequences.
# [4] = test system: MDA-MB-231 cancer cell metastasis; experiment: CAM assay, metastatic invasion (qPCR for Human Alu sequences in lower CAM); format: in vivo; conditions: MDA-MB-231, lower CAM, treated daily for 8 days, different concentrations
# Method: as §1
# chick embryo = experiment: CAM assay, chick embryo toxicity; format: in vivo, chicken; conditions: chick embryos; for Alive / Dead: of 18 total
# Method: as §1
# adherent MCF7 cells [5] = experiment: Metabolic flux analysis, mitochondrial oxygen consumption rate (Seahorse XFe96); format: cell-based, human; conditions: 2.5 μM, versus vehicle-alone control
# Method: (§2) FIGS. 11A-D show mitochondrial respiration, basal respiration, maximal respiration, and ATP production results for metabolic flux analysis of adherent MCF7 cells were treated with Compound [III] at 2.5 μM. After treatment, the mitochondrial oxygen consumption rate (OCR) was measured using the Seahorse XFe96 analyzer. Data is expressed as percentage of OCR versus control.
# adherent MCF7 cells [6] = experiment: Glycolytic function analysis (ECAR); format: cell-based, human; conditions: 2.5 μM, versus control
# Method: as §2
# FIGS. 12A-D show the results of glycolytic function analysis for treatment with Compound [III] at 2.5 μM. Glycolytic function, basal glycolysis, induced glycolysis, and compensatory glycolysis, respectively. […] All data was normalized for cell number. Statistical analysis was conducted using one-way ANOVA.
# BJ1-hTERT cells [7] = experiment: SRB assay (cell viability) on BJ1-hTERT cells; conditions: 72 hours
# Method: as §3, §4
# MCF-7 cells [8] = test system: MCF-7 cells
# Method: as §3, §4
# BJ1-hTERT cells [9] = test system: BJ1-hTERT cells
# Method: as §3, §4
compound,measurement,setting,value
"CCCCCCCCCCCCCC(=O)Nc1cc(F)ccc1-c1cc(=O)oc2cc(O[C@H](C)C(=O)N(CC)C(=O)NCCCN(C)C)ccc12 [Compound [IV], N-[2-[7-[(1R)-2-[3-(Dimethylamino)propylcarbamoyl-ethyl-amino]-1-methyl-2-oxo-ethoxy]-2-oxo-chromen-4-yl]-5-fluoro-phenyl]tetradecanamide]",inhibition at 2.5 µM,"MCF-7 cells [1]; Homo sapiens, MCF7, at 2.5 μM",> 50%
same,inhibition of MCF-7 cells (mammosphere formation),MCF-7 cells [1]; at 10 μM,near complete inhibition
same,inhibition of MCF-7 cells across tested concentrations (mammosphere formation),MCF-7 cells [1],"dose-dependent inhibition of MCF-7 cells at all tested concentrations, ranging from 1 μM to 10 μM"
same,concentration at which cytotoxicity towards MCF-7 cells starts (SRB assay),MCF-7 cells [2],≥ 5 µM
tert-Butyl-N-[3-chloro-4-[7-[(1R)-2-[[2-[2-(dimethylamino)ethylamino]-2-oxo-ethyl]-ethyl-amino]-1-methyl-2-oxo-ethoxy]-2-oxo-chromen-4-yl]phenyl]carbamate [Compound [III]],inhibition of MCF-7 cells across tested concentrations (mammosphere formation),MCF-7 cells [1],"dose-dependent inhibition of MCF-7 cells at all tested concentrations, ranging from 1 μM to 10 μM"
same,"potency relative to Compound [I], MCF-7 mammosphere formation",MCF-7 cells [1],twenty-fold improvement
same,tumor growth (CAM assay),[3],dose-dependent reduction in tumor growth
same,metastatic invasion (CAM assay),[4],dose-dependent reduction in metastasis
same,% Alive,chick embryo; 100 μM,83.33%
same,% Dead,chick embryo; 100 μM,16.67%
same,Alive,chick embryo; 100 μM,15
same,Dead,chick embryo; 100 μM,3
same,% Alive,chick embryo; 250 μM,100%
same,% Dead,chick embryo; 250 μM,0%
same,Alive,chick embryo; 250 μM,18
same,Dead,chick embryo; 250 μM,0
same,% Alive,chick embryo; 500 μM,94.44%
same,% Dead,chick embryo; 500 μM,5.56%
same,Alive,chick embryo; 500 μM,17
same,Dead,chick embryo; 500 μM,1
same,toxicity assessment (CAM assay),chick embryo; in words,non-toxic towards normal cells
same,ATP production levels,adherent MCF7 cells [5],significantly inhibited
same,basal OCR (basal respiration),adherent MCF7 cells [5],significantly inhibited
same,maximal OCR (maximal respiration),adherent MCF7 cells [5],significantly inhibited
same,ECAR levels (glycolysis),adherent MCF7 cells [6],largely comparable between the control and the demonstrative compound; also recorded: little or no effects on glycolysis
same,concentration at which cytotoxicity towards MCF-7 cells starts (SRB assay),MCF-7 cells [2],≥ 10 µM
same,concentration at which cytotoxicity towards BJ1-hTERT cells starts (SRB assay),BJ1-hTERT cells [7],≥ 10 µM
"CCCCCCCCCCCCCC(=O)Nc1cc(F)ccc1-c1cc(=O)oc2cc(O[C@H](C)C(=O)O)ccc12 [Compound [VII], (2R)-2-[4-[4-Fluoro-2-(tetradecanoylamino)phenyl]-2-oxo-chromen-7-yl]oxypropanoic acid]",inhibition at 1 µM,"MCF-7 cells [1]; Homo sapiens, MCF7, at 1 μM",> 50%
same,inhibition at 100 µM,"MCF-7 cells [1]; Homo sapiens, MCF7",100%
same,inhibition of MCF-7 cells across tested concentrations (mammosphere formation),MCF-7 cells [1],"inhibitory activity can be seen at all tested concentrations, from 1 μM to 100 μM"
same,cytotoxicity towards MCF-7 cells (SRB assay),MCF-7 cells [2],little toxicity across the tested concentrations below 100 μM
"CCCCCCCCCCCCCC(=O)Nc1ccc(-c2cc(=O)oc3cc(O[C@H](C)C(=O)N(CC)CC(=O)NCCN(C)C)ccc23)c(Cl)c1 [Compound [V], N-[3-Chloro-4-[7-[(1R)-2-[[2-[2-(dimethylamino)ethylamino]-2-oxo-ethyl]-ethyl-amino]-1-methyl-2-oxo-ethoxy]-2-oxo-chromen-4-yl]phenyl]tetradecanamide]",inhibition at 0.5 µM,"MCF-7 cells [1]; Homo sapiens, MCF7, at 0.5 μM",> 50%
same,inhibition at 5 µM,"MCF-7 cells [1]; Homo sapiens, MCF7, at 5 μM",100%
same,inhibition of MCF-7 cells across tested concentrations (mammosphere formation),MCF-7 cells [1],"effectively inhibited MCF-7 cells at all tested concentrations, ranging from 0.5 μM to 10 μM"
same,concentration at which cytotoxicity towards MCF-7 cells starts (SRB assay),MCF-7 cells [2],≥ 5 µM
same,concentration at which cytotoxicity towards BJ1-hTERT cells starts (SRB assay),BJ1-hTERT cells [7],≥ 5 µM
"CCCCCCCCCCCCCC(=O)Nc1ccc(-c2cc(=O)oc3cc(O[C@H](C)C(=O)N4CCC[C@H](C(=O)O)C4)ccc23)c(Cl)c1 [Compound [II], (3S)-1-[(2R)-2-[4-[2-Chloro-4-(tetradecanoylamino)phenyl]-2-oxo-chromen-7-yl]oxypropanoyl]piperidine-3-carboxylic acid]",IC50,"MCF-7 cells [1]; Homo sapiens, MCF7",~5 µM
same,inhibition at 10 µM,"MCF-7 cells [1]; Homo sapiens, MCF7, at 10 μM",> 50%
same,inhibition at 100 µM,"MCF-7 cells [1]; Homo sapiens, MCF7",100%
same,inhibition of MCF-7 cells across tested concentrations (mammosphere formation),MCF-7 cells [1],"dose-dependent inhibition of MCF-7 cells at all tested concentrations, ranging from 0.1 μM to 100 μM"
same,"potency relative to Compound [I], MCF-7 mammosphere formation",MCF-7 cells [1],10
same,concentration at which cytotoxicity towards MCF-7 cells starts (SRB assay),MCF-7 cells [2],≥ 50 µM
same,concentration at which cytotoxicity towards BJ1-hTERT cells starts (SRB assay),BJ1-hTERT cells [7],≥ 50 µM
"CCCCCCCCCCCCCC(=O)Nc1ccc(-c2cc(=O)oc3cc(O[C@H](C)C(=O)O)ccc23)c(Cl)c1 [Compound [VI], (2R)-2-[4-[2-chloro-4-(tetradecanoylamino)phenyl]-2-oxo-chromen-7-yl]oxypropanoic acid]",inhibition at 10 µM,"MCF-7 cells [1]; Homo sapiens, MCF7, at 10 μM",> 50%
same,inhibition of MCF-7 cells across tested concentrations (mammosphere formation),MCF-7 cells [1],"inhibitory activity can be seen at all tested concentrations, from 1 μM to 100 μM"
same,cytotoxicity towards MCF-7 cells (SRB assay),MCF-7 cells [2],little toxicity across the tested concentrations
"C[C@@H](Oc1ccc2c(-c3ccc(F)cc3Cl)cc(=O)oc2c1)C(=O)N1CCC[C@H](C(=O)O)C1 [Compound [I], 3-piperidinecarboxylic acid, 1-[(2R)-2-[[4-(2-chloro-4-fluorophenyl)-2-oxo-2H-1-benzopyran-7-yl]oxy]-1-oxopropyl]-, (3S)-, reference compound]",IC50,"MCF-7 cells [1]; Homo sapiens, MCF7",~50 µM
same,inhibition at 100 µM,"MCF-7 cells [1]; Homo sapiens, MCF7",> 50%
same,inhibition of MCF-7 cells (mammosphere formation),MCF-7 cells [1]; at 5 μM,showed inhibition
same,cytotoxicity towards MCF-7 cells (SRB assay),MCF-7 cells [8],did not exhibit cytotoxicity
same,cytotoxicity towards BJ1-hTERT cells (SRB assay),BJ1-hTERT cells [9],did not exhibit cytotoxicity
